Values of other authors, collected in US20250170146A1, “NIRAPARIB AND ABIRATERONE ACETATE PLUS PREDNISONE TO IMPROVE CLINICAL OUTCOMES IN PATIENTS WITH METASTATIC CASTRATION-RESISTANT PROSTATE CANCER AND HRR ALTERATIONS” (JANSSEN PHARMACEUTICA NV, priority 2022, published 2025).
Where two headings read alike, the source gives them in different places.

Columns and labels:
[1] = target: T1, CYP2C8 (Homo sapiens, UniProt P10632); conditions: pioglitazone with a single dose of 1,000 mg AA; healthy subjects
T1 construct: host or cells: healthy subjects (in vivo; the subjects' own enzyme)
T1 sequence (P10632 1-490): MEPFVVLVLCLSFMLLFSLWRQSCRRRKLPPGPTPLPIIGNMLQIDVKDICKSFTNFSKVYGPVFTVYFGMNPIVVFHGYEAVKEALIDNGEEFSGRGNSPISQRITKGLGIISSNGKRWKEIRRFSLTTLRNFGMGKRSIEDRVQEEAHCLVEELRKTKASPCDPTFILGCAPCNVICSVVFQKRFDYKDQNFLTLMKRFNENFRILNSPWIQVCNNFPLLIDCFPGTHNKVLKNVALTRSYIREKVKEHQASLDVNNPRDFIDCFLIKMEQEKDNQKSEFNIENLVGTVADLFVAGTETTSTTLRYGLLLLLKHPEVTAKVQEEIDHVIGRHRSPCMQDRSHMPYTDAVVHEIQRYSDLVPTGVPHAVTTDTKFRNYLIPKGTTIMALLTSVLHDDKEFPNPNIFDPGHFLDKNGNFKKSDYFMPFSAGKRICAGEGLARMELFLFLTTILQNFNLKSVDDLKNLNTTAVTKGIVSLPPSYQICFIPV

[2] = test system: first line (pre-docetaxel) mCRPC; conditions: Prevail
[3] = test system: post-docetaxel mCRPC; conditions: Affirm
[4] = test system: mCRPC; conditions: TAX-327
[5] = test system: L2+ mCRPC HRR-positive

CC(=O)O[C@H]1CC[C@@]2(C)C(=CC[C@@H]3[C@@H]2CC[C@]2(C)C(c4cccnc4)=CC[C@@H]32)C1 [AA, Abiraterone acetate]
increase in AUC of pioglitazone [1]: 46%

CNC(=O)c1ccc(N2C(=S)N(c3ccc(C#N)c(C(F)(F)F)c3)C(=O)C2(C)C)cc1F [Enzalutamide]
12-month rPFS milestone [2]: 65% | investigator assessed rPFS [2]: 20 months | median OS [2]: 35.3 months | median rPFS [2]: not reached | objective response rate (ORR) [2]: 59% | rPFS benefit by BICR Hazard Ratio [2]: 0.32 | rPFS risk reduction by BICR [2]: 68% | OS [3]: 18.4 months | OS benefit vs placebo [3]: 4.8 months | PSA50 response [3]: 54% | QoL response rate [3]: 43% | TTPSA progression [3]: 8.3 months | rPFS [3]: 8.3 months

CC(=O)O[C@@]12CO[C@@H]1C[C@H](O)[C@@]1(C)C(=O)[C@H](O)C3=C(C)[C@@H](OC(=O)[C@H](O)[C@@H](NC(=O)OC(C)(C)C)c4ccccc4)C[C@@](O)([C@@H](OC(=O)c4ccccc4)[C@H]21)C3(C)C [docetaxel]
OS benefit vs mitoxantrone [4]: 2.4 months | PSA50 response [4]: 45% | overall survival (OS) [4]: 18.9 months | quality of life (QoL) response [4]: 22% | tumor response [4]: 12%

O=C1c2c(O)ccc(O)c2C(=O)c2c(NCCNCCO)ccc(NCCNCCO)c21 [mitoxantrone]
PSA50 response [4]: 32% | overall survival (OS) [4]: 16.5 months | quality of life (QoL) response [4]: 13% | tumor response [4]: 7%

Cc1ccc(S(=O)(=O)O)cc1.NC(=O)c1cccc2cn(-c3ccc([C@@H]4CCCNC4)cc3)nc12 [niraparib, 2-[4-[(3S)-piperidin-3-yl]phenyl]-2H-indazole-7-carboxamide]
median OS ([5]; L2+ mCRPC BRCA patients): 13.01 months | median rPFS ([5]; L2+ mCRPC BRCA patients): 8.08 months | median time to PSA progression ([5]; L2+ mCRPC BRCA patients): 5.13 months | median time to symptomatic skeletal event ([5]; L2+ mCRPC BRCA patients): 13.80 months | overall response rate (ORR) ([5]; L2+ mCRPC BRCA patients): 34.2% | ORR ([5]; L2+ mCRPC non-BRCA patients): 10.6% | median OS ([5]; non-BRCA patients): 9.63 months | median rPFS ([5]; non-BRCA patients): 3.71 months | median time to PSA progression ([5]; non-BRCA patients): 3.65 months | median time to symptomatic skeletal event ([5]; non-BRCA patients): 10.35 months
